Target: T1, LRRK2 G2019S mutant kinase (Homo sapiens, UniProt Q5S007, G2019S)
T1 construct: GST; purchased Invitrogen PV4882
Test: LRRK2 G2019S LanthaScreen TR-FRET kinase assay
Assay type: biochemical
Conditions: LRRK2 G2019S GST-tagged protein, 100 μM ATP, LRRKtide substrate; read-out: IC50 (potency)
Protocol: Activity of compounds against LRRK2 G2019S mutant kinase function was tested in a LANTHAScreen® assay as follows: Compounds were diluted in 100% DMSO to the desired test concentrations in white, low-volume 384-well plates (PerkinElmer ProxiPlate® PN: 6008280). TR-FRET kinase reactions (10 μL) were performed with 75 nM Fluorescein-ERM (LRRKtide, Invitrogen, PN:PV4901) substrate in a final assay buffer containing 100 μM ATP and 2 mM DTT diluted in commercially available Kinase Buffer S (Invitrogen PN: PV5213). The final solvent concentration in the assay was 1% DMSO. Reactions were initiated with the addition of 10 ng/well of LRRK2 02019S, GST-tagged protein (Invitrogen PN: PV4882). After incubation of the foil sealed reaction plates at room temperature with low speed mixing for 1 hour, the kinase reaction was stopped and the amount of substrate phosphorylation was detected by addition of 10 μL of 10 mM EDTA and 2 nM Tb-anti-pERM (pLRRKtide antibody, Invitrogen, PN: PV4898) antibody in TR-FRET dilution buffer (Invitrogen PN: PV3574). After a 30 minute incubation at room temperature with low speed mixing, foil seals were removed and measurements were obtained on a PerkinElmer EnVision with excitation 340 nm, emission 520 nm (channel 1): 495 nm (channel 2) settings. Generation of raw data and workup of data to derive the IC50 (potency) and maximal inhibition at concentrations tested were performed using Merck's Assay Data Analyzer (ADA) software.

T1 sequence (Q5S007 whole entry G2019S): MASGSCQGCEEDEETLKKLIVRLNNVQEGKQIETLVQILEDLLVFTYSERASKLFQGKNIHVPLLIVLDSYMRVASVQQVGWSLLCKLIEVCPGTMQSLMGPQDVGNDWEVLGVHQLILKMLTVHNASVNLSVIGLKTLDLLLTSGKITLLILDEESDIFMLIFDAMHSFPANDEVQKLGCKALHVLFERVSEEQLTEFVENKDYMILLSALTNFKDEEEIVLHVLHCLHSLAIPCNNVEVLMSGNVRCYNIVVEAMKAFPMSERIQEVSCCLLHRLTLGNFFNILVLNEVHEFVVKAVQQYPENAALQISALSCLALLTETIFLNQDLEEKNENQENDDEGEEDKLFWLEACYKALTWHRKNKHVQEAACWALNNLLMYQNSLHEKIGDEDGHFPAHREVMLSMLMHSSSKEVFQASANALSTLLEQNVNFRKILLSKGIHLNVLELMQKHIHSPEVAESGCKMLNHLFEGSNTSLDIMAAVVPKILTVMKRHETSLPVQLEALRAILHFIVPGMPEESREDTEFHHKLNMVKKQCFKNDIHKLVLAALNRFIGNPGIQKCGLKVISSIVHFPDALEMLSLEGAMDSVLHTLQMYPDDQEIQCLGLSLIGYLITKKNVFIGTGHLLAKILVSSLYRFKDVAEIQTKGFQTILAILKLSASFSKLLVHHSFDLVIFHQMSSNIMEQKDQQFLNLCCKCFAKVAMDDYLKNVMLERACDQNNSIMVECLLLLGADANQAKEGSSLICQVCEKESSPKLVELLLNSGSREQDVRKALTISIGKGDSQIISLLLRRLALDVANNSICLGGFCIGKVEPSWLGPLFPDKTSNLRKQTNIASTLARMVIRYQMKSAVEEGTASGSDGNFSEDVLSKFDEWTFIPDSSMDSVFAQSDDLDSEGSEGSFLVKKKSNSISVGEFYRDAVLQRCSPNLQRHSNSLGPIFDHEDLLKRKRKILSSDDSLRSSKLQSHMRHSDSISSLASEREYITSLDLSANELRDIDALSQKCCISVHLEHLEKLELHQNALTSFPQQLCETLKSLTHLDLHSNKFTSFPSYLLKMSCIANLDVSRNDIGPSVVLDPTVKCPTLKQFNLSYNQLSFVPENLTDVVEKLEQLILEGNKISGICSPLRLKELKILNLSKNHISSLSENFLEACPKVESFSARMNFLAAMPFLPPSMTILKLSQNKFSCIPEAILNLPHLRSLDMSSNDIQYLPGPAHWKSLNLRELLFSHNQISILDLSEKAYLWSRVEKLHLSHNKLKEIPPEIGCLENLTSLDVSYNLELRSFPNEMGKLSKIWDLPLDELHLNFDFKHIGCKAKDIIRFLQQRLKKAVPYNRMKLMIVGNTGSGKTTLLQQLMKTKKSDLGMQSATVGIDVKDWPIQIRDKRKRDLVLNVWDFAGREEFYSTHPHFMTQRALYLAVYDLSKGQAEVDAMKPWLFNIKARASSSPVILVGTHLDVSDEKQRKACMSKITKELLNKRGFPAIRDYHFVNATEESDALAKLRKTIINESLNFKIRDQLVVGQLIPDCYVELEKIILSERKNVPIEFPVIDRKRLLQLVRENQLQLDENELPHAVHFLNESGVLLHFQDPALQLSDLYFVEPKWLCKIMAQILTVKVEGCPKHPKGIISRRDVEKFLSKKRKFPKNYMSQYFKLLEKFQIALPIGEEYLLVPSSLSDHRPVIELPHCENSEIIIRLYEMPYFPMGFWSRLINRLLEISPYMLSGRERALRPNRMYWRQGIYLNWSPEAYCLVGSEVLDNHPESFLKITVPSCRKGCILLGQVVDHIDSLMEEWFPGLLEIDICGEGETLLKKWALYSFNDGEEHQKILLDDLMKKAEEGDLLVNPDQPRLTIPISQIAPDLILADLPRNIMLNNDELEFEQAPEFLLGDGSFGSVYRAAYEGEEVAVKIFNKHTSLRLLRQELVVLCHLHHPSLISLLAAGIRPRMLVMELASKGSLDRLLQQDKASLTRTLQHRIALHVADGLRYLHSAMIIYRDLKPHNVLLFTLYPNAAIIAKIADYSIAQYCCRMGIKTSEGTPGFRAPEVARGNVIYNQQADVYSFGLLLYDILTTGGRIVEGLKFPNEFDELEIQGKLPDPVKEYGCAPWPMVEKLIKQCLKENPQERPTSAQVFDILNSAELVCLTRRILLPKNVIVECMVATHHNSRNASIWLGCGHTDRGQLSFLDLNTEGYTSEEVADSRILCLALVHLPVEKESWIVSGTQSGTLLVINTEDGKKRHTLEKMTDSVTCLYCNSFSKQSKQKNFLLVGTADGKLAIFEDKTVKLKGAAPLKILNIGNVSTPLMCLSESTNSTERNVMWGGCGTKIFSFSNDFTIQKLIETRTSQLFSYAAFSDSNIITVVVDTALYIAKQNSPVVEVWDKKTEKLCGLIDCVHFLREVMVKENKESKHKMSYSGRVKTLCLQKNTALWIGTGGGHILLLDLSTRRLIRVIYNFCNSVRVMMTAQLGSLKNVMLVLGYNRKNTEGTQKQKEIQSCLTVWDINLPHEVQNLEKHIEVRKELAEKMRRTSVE

| SMILES | IC50 [nM] |
| --- | --- |
| CCNc1sc(-c2cc[nH]n2)c2c1C(=O)CC(C)(C)C2 [Example 38, 3-(Ethylamino)-6,6-dimethyl-1-(1H-pyrazol-3-yl)-6,7-dihydro-2-benzothiophen-4(5H)-one] | 290 |
| CC1(C)CC(=O)c2c(NC3CCCCC3)sc(-c3cc[nH]n3)c2C1 [Example 39, 3-(Cyclohexylaminn)-6,6-dimethyl-1-(1H-pyrazol-3-yl)-6,7-dihydro-2-benzothiophen-4(5H)-one] | 240 |
| CC1(C)CC(=O)c2c(N3CCC3)sc(-c3cc[nH]n3)c2C1 [Example 40, 3-(Azetidin-1-yl)-6,6-dimethyl-1-(1H-pyrazol-3-yl)-6,7-dihydro-2-benzothiophen-4(5H)-one] | 580 |
| CN(C)c1sc(-c2cc[nH]n2)c2c1C(=O)CC(C)(C)C2 [Example 41, 3-(Dimethylamino)-6,6-dimethyl-1-(1H-pyrazol-3-yl)-6,7-dihydro-2-benzothiophen-4(5H)-one] | 2000 |
| CN1CCN(CCCNc2sc(-c3cc[nH]n3)c3c2C(=O)CC(C)(C)C3)CC1 [Example 42, 6,6-Dimethyl-3-{[3-(4-methylpiperazin-1-yl)propyl]amino}-1-(1H-pyrazol-3-yl)-6,7-dihydro-2-benzothiophen-4(5H)-one] | 420 |
| CN1CCN(c2sc(-c3cc[nH]n3)c3c2C(=O)CC(C)(C)C3)CC1 [Example 43, 6,6-Dimethyl-3-(4-methylpiperazin-1-yl)-1-(1H-pyrazol-3-yl)-6,7-dihydro-2-benzothiophen-4(5H)-one] | 4000 |
| CC1(C)CC(=O)c2c(NCc3ccco3)sc(-c3cc[nH]n3)c2C1 [Example 44, 3-[(Furan-2-ylmethyl)amino]-6,6-dimethyl-1-(1H-pyrazol-3-yl)-6,7-dihydro-2-benzothiophen-4(5H)-one] | 380 |
| CC1(C)CC(=O)c2c(NCCN3CCOCC3)sc(-c3cc[nH]n3)c2C1 [Example 45, 6,6-Dimethyl-3-{[2-(morpholin-4-yl)ethyl]amino}-1-(1H-pyrazol-3-yl)-6,7-dihydro-2-benzothiophen-4(5H)-one] | 250 |
| CC1(C)CC(=O)c2c(NC3CC3)sc(-c3cc[nH]n3)c2C1 [Example 46, 3-(Cyclopropylamino)-6,6-dimethyl-1-(1H-pyrazol-3-yl)-6,7-dihydro-2-benzothiophen-4(5H)-one] | 210 |
| CC1(C)CC(=O)c2c(NCCc3ccccn3)sc(-c3cc[nH]n3)c2C1 [Example 47, 6,6-Dimethyl-1-(1H-pyrazol-3-yl)-3-{[2-(pyridin-2-yl)ethyl]amino}-6,7-dihydro-2-benzothiophen-4(5H)-one] | 290 |
| CC1(C)CC(=O)c2c(NCc3ccccn3)sc(-c3cc[nH]n3)c2C1 [Example 48, 6,6-Dimethyl-1-(1H-pyrazol-3-yl)-3-[(pyridin-2-ylmethyl)amino]-6,7-dihydro-2-benzothiophen-4(5H)-one] | 620 |
| CC1(C)CC(=O)c2c(NC3CCCC3)sc(-c3cc[nH]n3)c2C1 [Example 49, 3-(Cyclopentylamino)-6,6-dimethyl-1-(1H-pyrazol-3-yl)-6,7-dihydro-2-benzothiophen-4(5H)-one] | 97 |
| CC1(C)CC(=O)c2c(NCCCCCCO)sc(-c3cc[nH]n3)c2C1 [Example 50, 3-[(6-Hydroxyhexyl)amino]-6,6-dimethyl-1-(1H-pyrazol-3-yl)-6,7-dihydro-2-benzothiophen-4(5H)-one] | 180 |
| CC1(C)CC(=O)c2c(N[C@H]3CC[C@H](O)CC3)sc(-c3cc[nH]n3)c2C1 [Example 51, 3-[(trans-4-Hydroxycyclohexyl)amino]-6,6-dimethyl-1-(1H-pyrazol-3-yl)-6,7-dihydro-2-benzothiophen-4(5H)-one] | 220 |
| CC1(C)CC(=O)c2c(OC3CCCC3)sc(-c3cc[nH]n3)c2C1 [Example 52, 3-(Cyclopentyloxy)-6,6-dimethyl-1-(1H-pyrazol-3-yl)-6,7-dihydro-2-benzothiophen-4(5H)-one] | 300 |
| CC1(C)CC(=O)c2c(OC3CCC3)sc(-c3cc[nH]n3)c2C1 [Example 53, 3-(Cyclobutylexy)-6,6-dimethyl-1-(1H-pyrazol-3-yl)-6,7-dihydro-2-benzothiophen-4(5H)-one] | 430 |

| SMILES | IC50 [nM] |
| --- | --- |
| CC(C)Oc1sc(-c2cc[nH]n2)c2c1C(=O)CC(C)(C)C2 [Example 54, 6,6-Dimethyl-3-(propan-2-yloxy)-1-(1H-pyrazol-3-yl)-6,7-dihydro-2-benzothiophen-4(5H)-one] | 790 |
| CC1(C)CC(=O)c2c(Oc3ccccc3)sc(-c3cc[nH]n3)c2C1 [Example 55, 6,6-Dimethyl-3-phenoxy-1-(1H-pyrazol-3-yl)-6,7-dihydro-2-benzothiophen-4(5H)-one] | 4200 |
| CCCc1sc(-c2cc[nH]n2)c2c1C(=O)CC(C)(C)C2 [Example 56, 6,6-Dimethyl-3-propyl-1-(1H-pyrazol-3-yl)-6,7-dihydro-2-benzothiophen-4(5H)-one] | 2200 |
| CC(C)NC(=O)n1ccc(-c2sc(SC3CCCC3)c3c2CC(C)(C)CC3=O)n1 [Example 57] | 1400 |
| COc1ccc(NC(=O)n2ccc(-c3sc(SC4CCCC4)c4c3CC(C)(C)CC4=O)n2)cc1 [Example 58, 3-[3-(Cyclopentylsulfanyl)-6,6-dimethyl-4-oxo-4,5,6,7-tetrahydro-2-benzothiophen-1-yl]-N-(4-methoxyphenyl)-1H-pyrazole-1-carboxamide] | 110 |
| CC1(C)CC(=O)c2c(SC3CCCC3)sc(-c3ccn(C(=O)Nc4ccc(C(F)(F)F)cc4)n3)c2C1 [Example 59, 3-[3-(Cyclopentylsulfanyl)-6,6-dimethyl-4-oxo-4,5,6,7-tetrahydro-2-benzothiophen-1-yl]-N-[4-(trifluoromethyl)phenyl]-1H-pyrazole-1-carboxamide] | 93 |
| CC1(C)CC(=O)c2c(SC3CCCC3)sc(-c3ccn(C(=O)NCc4ccccc4)n3)c2C1 [Example 60, N-benzyl-3-[3-(Cyclopentylsulfanyl)-6,6-dimethyl-4-oxo-4,5,6,7-tetrahydro-2-benzothiophen-1-yl]-1H-pyrazole-1-carboxamide] | 520 |
| CSc1cccc(NC(=O)n2ccc(-c3sc(SC4CCCC4)c4c3CC(C)(C)CC4=O)n2)c1 [Example 61, 3-[3-(Cyclopentylsulfanyl)-6,6-dimethyl-4-oxo-4,5,6,7-tetrahydro-2-benzothiophen-1-yl]-N-[3-(methylsulfanyl)phenyl]-1H-pyrazole-1-carboxamide] | 110 |
| CC1(C)CC(=O)c2c(SC3CCCC3)sc(-c3ccn(C(=O)Nc4ccc(Cl)cc4)n3)c2C1 [Example 62, N-(4-Chlorophenyl)-3-[3-(cyclopentylsulfanyl)-6,6-dimethyl-4-oxo-4,5,6,7-tetrahydro-2-benzothiophen-1-yl]-1H-pyrazole-1-carboxamide] | 86 |
| CC1(C)CC(=O)c2c(SC3CCCC3)sc(-c3ccn(C(=O)Nc4ccc5ccccc5c4)n3)c2C1 [Example 63, 3-[3-(Cyclopentylsulfanyl)-6,6-dimethyl-4-oxo-4,5,6,7-tetrahydro-2-benzothiophen-1-yl]-N-(naphthalen-2-yl)-1H-pyrazole-1-carboxamide] | 110 |
| CC1(C)CC(=O)c2c(SC3CCCC3)sc(-c3ccn(C(=O)Nc4ccc(C#N)cc4)n3)c2C1 [Example 64, N-(4-Cyanophenyl)-3-[3-(cyclopentylsulfanyl)-6,6-dimethyl-4-oxo-4,5,6,7-tetrahydro-2-benzothiophen-1-yl]-1H-pyrazole-1-carboxamide] | 85 |
| CC1(C)CC(=O)c2c(SC3CCCC3)sc(-c3ccn(C(=O)NC4CCN(C(=O)C(F)(F)F)CC4)n3)c2C1 [Example 65, 3-[3-(Cyclopentylsulfanyl)-6,6-dimethyl-4-oxo-4,5,6,7-tetrahydro-2-benzothiophen-1-yl]-N-[1-(trifluoroacetyl)piperidin-4-yl]-1H-pyrazole-1-carboxamide] | 330 |
| COc1ccccc1NC(=O)n1ccc(-c2sc(SC3CCCC3)c3c2CC(C)(C)CC3=O)n1 [Example 66, 3-[3-(Cyclopentylsulfanyl)-6,6-dimethyl-4-oxo-4,5,6,7-tetrahydro-2-benzothiophen-1-yl]-N-(2-methoxyphenyl)-1H-pyrazole-1-carboxamide] | 110 |
| CC1(C)CC(=O)c2c(SC3CCCC3)sc(-c3ccn(C(=O)Nc4cccc(Cl)c4)n3)c2C1 [Example 67, N-(3-Chlorophenyl)-3-[3-(cyclopentylsulfanyl)-6,6-dimethyl-4-oxo-4,5,6,7-tetrahydro-2-benzothiophen-1-yl]-1H-pyrazole-1-carboxamide] | 330 |
| CC1(C)CC(=O)c2c(SC3CCCC3)sc(-c3ccn(C(=O)Nc4cccc(C#N)c4)n3)c2C1 [Example 68, N-(3-Cyanophenyl)-3-[3-(cyclopentylsulfanyl)-6,6-dimethyl-4-oxo-4,5,6,7-tetrahydro-2-benzothiophen-1-yl]-1H-pyrazole-1-carboxamide] | 130 |
| CC1(C)CC(=O)c2c(SC3CCCC3)sc(-c3ccn(C(=O)NCCc4ccccc4)n3)c2C1 [Example 69, 3-[3-(Cyclopentylsulfanyl)-6,6-dimethyl-4-oxo-4,5,6,7-tetrahydro-2-benzothiophen-1-yl]-N-(2-phenylethyl)-1H-pyrazole-1-carboxamide] | 4200 |
